{
  "source": "paper PMC5938390",
  "about": "“Tachyplesin Causes Membrane Instability That Kills Multidrug-Resistant Bacteria by Inhibiting the 3-Ketoacyl Carrier Protein Reductase FabG” (Frontiers in Microbiology, 2018)",
  "key": {"[1]": {"system": "Escherichia coli strain DH5α", "settings": "37°C, 2 mg/ml, stability judged by MIC against DH5α, tested during the first 6 h", "protocol": "(§1) These studies were carried out as we previously reported with slight modifications and briefly introduced as follows ([Liu et al., 2017]). […] Cytotoxicity in different cell lines was assessed using the Cell Proliferation Kit II (XTT) (Roche), and cytotoxicity in hemocytes was evaluated by the increase in the absorbance at 540 nm after peptide incubation. Membrane rupture was indicated by the entrance of the DNA-binding fluorescent dye PI into MDR clinical isolates of P. aeruginosa strain 1409. Membrane translocation of N-terminal FITC-conjugated tachyplesin III (purity ≥ 95%, synthesized by GL Biochem Co., Ltd, Shanghai, China) into MDR clinical isolates of Acinetobacter baumannii strain 1408 were detected by confocal laser-scanning microscopy.\nTachyplesin III (2 mg/ml) was incubated in either sterile deionized water or mouse serum at 37°C for various lengths of time, aliquots were taken, and MICs against DH5α cells were tested. Stability of the MIC indicates the stability of tachyplesin III."}, "[2]": {"system": "293FT (human embryonic kidney cell line)", "settings": "concentration increased from 100 mg/L to 200 mg/L, XTT", "protocol": "as §1\n(§2) Cytotoxicity of tachyplesin III was tested by hemolysis and cell viability assays. (A) Tachyplesin III dissolved in 0.9% saline was added to mouse erythrocytes that were diluted with the same buffer. After 30 min of incubation at 37°C and then centrifugation at 1000 g for 15 min, supernatants were diluted 1:4 with 0.9% saline, and absorbance at 540 nm was tested. With 1% Triton X-100 (v/v) to determine 100% hemolysis and 0.9% saline as the negative control, the hemolysis rate was calculated as [(Absorbancesample^-Absorbancecontrol)/(Absorbance100%^-Absorbancecontrol)] × 100. Cytotoxicity was assessed using the Cell Proliferation Kit II (XTT) (Roche) for (B) L929 (mouse fibroblast cell line), (C) 293FT (human embryonic kidney cell line) and (D) A549 (adenocarcinomic human alveolar basal epithelial cell line) cells. Absorbance [A492-A690 nm] was used to quantify viable cells."}, "[3]": {"system": "A549 (adenocarcinomic human alveolar basal epithelial cell line)", "settings": "concentration increased from 200 mg/L to 400 mg/L, XTT", "protocol": "as §1, §2"}, "[4]": {"system": "L929 (mouse fibroblast cell line)", "settings": "concentration increased from 50 mg/L to 100 mg/L, XTT", "protocol": "as §1, §2"}, "P. aeruginosa 1409": {"system": "P. aeruginosa 1409", "experiment": "MIC against MDR clinical isolate", "format": "cell-based, Pseudomonas aeruginosa", "settings": "P. aeruginosa 1409"}, "E. coli 513": {"system": "E. coli 513", "experiment": "MIC against clinical isolate", "format": "cell-based, Escherichia coli"}, "K. pneumoniae 5": {"system": "K. pneumoniae 5", "experiment": "Transcriptome analysis (RNA sequencing, FPKM, DESeq)", "format": "cell-based, Klebsiella pneumoniae", "settings": "Kp; Ta 16 μg/ml, 30 min, 37°C", "protocol": "The Vitek 32 system (bioMerieux, France) and 16S rDNA sequencing were used to verify the clinical isolates A. baumannii 1408, P. aeruginosa 1409, Klebsiella pneumoniae 5 and E. coli 513, which were grown overnight in Luria-Bertani (LB) medium at 37°C with constant shaking at 220 rpm to reach the middle of their logarithmic growth phase. […] After the addition of 2 volumes of RNAprotect Bacteria Reagent (QIAGEN) to stabilized RNA, samples were vortexed for 5 s, incubated for 5 min at room temperature (15–25°C) and collected by centrifugation at 4°C for 5 min at 4000 g.\nRNA isolation and sequencing were performed by Novogene Bioinformatics Technology Co., Ltd. (Beijing, China) as previously described ([Liu B. et al., 2014]). Clean reads were mapped to the corresponding bacterial genomes using Bowtie 2 software ([Langmead and Salzberg, 2012]). Gene expression was calculated using the FPKM (expected number of fragments per kilobase of transcript sequence per millions of base pairs sequenced) method with HTSeq software (union model) ([Anders et al., 2015]). Differentially expressed genes were selected based on the DESeq R package with Padj values < 0.05 ([Anders and Huber, 2010]). KEGG pathway analysis was performed using KOBAS (2.0), and the corrected p value cut-off was set at 0.05 ([Li et al., 2015])."}},
  "note": "Positions of bridges follow the written chain, without caps; N, C: chain ends. Residues, ends and D or L forms follow the SMILES beside them.",
  "data": [
    {"smiles": "CC[C@H](C)[C@@H]1NC(=O)CNC(=O)[C@H](CCCNC(=N)N)NC(=O)[C@H](Cc2ccc(O)cc2)NC(=O)[C@@H]2CSSC[C@H](NC1=O)C(=O)N[C@@H](Cc1ccc(O)cc1)C(=O)N[C@@H](CCCNC(=N)N)C(=O)N[C@@H](CCCCN)C(=O)N[C@H](C(=O)N[C@@H](CCCNC(=N)N)C(N)=O)CSSC[C@H](NC(=O)[C@H](Cc1c[nH]c3ccccc13)NC(=O)[C@@H](N)CCCCN)C(=O)N[C@@H](Cc1ccccc1)C(=O)N[C@@H](CCCNC(=N)N)C(=O)N[C@@H](C(C)C)C(=O)N2", "note": "[tachyplesin III] (H-KWCFRVCYRGICYRKCR-NH2; disulfide 3-16, 7-12 (inferred); N-terminus and C-terminus assumed)", "values": [
      {"measurement": "time stable in mouse serum", "setting": "[1]", "value": "at least 6 h"},
      {"measurement": "cell viability", "setting": "[2]", "value": "Dramatic decreases in viability"},
      {"measurement": "cell viability", "setting": "[3]", "value": "Dramatic decreases in viability"},
      {"measurement": "cell viability", "setting": "[4]", "value": "declined sharply"},
      {"measurement": "16 μg/ml tachyplesin III expressed as multiple of MIC", "setting": "P. aeruginosa 1409", "value": 2, "unit": "× MIC"},
      {"measurement": "16 μg/ml tachyplesin III expressed as multiple of MIC", "setting": "E. coli 513", "value": 4, "unit": "× MIC"},
      {"measurement": "Fold change after Ta treatment, gene KPNJ2_01584 (Enoyl-CoA hydratase)", "setting": "K. pneumoniae 5", "value": 2},
      {"measurement": "Fold change after Ta treatment, gene KPNJ2_03426 (3-ketoacyl-acyl carrier protein reductase)", "setting": "K. pneumoniae 5", "value": 1.83}
    ]}
  ]
}
